The results in this text go back to patent publication US9000159B2 (Glenmark Pharmaceuticals, S.A., priority 2009, dated 2015).

This assay has as its target T1, Human TRPA1 (Homo sapiens, UniProt O75762).
T1 construct: expressed in transfected cells; host or cells: CHO cells
In words: 45Calcium uptake assay: inhibition of AITC induced cellular uptake of radioactive calcium. Particulars: AITC (30 μM) induced 45Ca uptake, Human TRPA1 expressing CHO cells; for inhibition at 1 µM: 1.0 μM test compound, read-out: Percentage inhibition at 1.0 μM; for inhibition at 10 µM: 10.0 μM test compound, read-out: Percentage inhibition at 10.0 μM; for pIC50: read-out: Human IC50 value (range). Format: cell-based. In outline:
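CHO cells stably expressing human TRPA1 (~50,000/well) preincubated 10 min with compound (0.5% DMSO, medium with 0.1% BSA, 1.8 mM CaCl2), then 30 μM AITC plus 5 μCi/ml 45Ca2+ for 3 min. Lysate radioactivity counted by scintillation; IC50 by nonlinear regression of % maximal uptake.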

pIC50: −log10 of the molar value.

T1 sequence (O75762 whole entry): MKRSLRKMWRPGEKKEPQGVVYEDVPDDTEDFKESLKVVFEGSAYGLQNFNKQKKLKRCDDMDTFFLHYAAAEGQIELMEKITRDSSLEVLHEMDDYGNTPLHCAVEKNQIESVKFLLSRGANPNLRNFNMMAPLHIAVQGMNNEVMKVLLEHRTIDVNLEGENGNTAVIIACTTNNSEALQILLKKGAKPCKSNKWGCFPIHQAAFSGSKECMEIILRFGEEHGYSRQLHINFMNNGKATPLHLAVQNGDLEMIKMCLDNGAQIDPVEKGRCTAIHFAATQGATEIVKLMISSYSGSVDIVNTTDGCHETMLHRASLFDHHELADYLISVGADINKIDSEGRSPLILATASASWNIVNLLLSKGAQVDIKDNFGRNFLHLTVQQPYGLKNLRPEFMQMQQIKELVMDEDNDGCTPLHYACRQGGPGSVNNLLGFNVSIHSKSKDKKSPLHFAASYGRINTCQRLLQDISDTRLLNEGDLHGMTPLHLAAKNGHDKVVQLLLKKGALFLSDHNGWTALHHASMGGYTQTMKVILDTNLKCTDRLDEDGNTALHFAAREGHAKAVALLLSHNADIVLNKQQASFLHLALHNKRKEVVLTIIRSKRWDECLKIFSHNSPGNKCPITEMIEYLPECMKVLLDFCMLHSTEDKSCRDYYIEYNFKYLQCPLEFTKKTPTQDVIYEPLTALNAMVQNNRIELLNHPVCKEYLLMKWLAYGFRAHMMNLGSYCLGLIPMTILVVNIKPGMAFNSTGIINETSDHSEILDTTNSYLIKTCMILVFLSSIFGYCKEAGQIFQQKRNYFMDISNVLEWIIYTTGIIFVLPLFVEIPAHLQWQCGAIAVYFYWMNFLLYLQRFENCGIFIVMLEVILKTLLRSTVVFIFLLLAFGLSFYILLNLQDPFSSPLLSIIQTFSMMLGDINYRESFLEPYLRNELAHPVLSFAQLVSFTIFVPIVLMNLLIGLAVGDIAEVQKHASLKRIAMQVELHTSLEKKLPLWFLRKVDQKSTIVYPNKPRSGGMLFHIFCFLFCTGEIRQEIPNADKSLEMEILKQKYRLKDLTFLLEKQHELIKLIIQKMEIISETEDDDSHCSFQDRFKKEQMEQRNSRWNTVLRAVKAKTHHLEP

For the molecule `Cc1cc2c(c(=O)n(C)c(=O)n2C)n1CC(=O)Nc1cc(-c2ccc(Br)cc2)on1` [Example 33, N-[5-(4-bromophenyl)isoxazol-3-yl]-2-(1,3,6-trimethyl-2,4-dioxo-1,2,3,4-tetrahydro-5H-pyrrolo[3,2-d]pyrimidin-5-yl)acetamide], the inhibition at 1 µM came out at 0% and the inhibition at 10 µM is 28.3%.
In the case of `Cc1cn(CC(=O)Nc2nc(-c3cc(F)c(OCC(C)(C)C)c(F)c3)cs2)c2c(=O)n(C)c(=O)n(C)c12` [Example 34, N-{4-[3,5-Difluoro-4-(2,2-dimethylpropoxy)phenyl]-1,3-thiazol-2-yl}-2-(1,3,7-trimethyl-2,4-dioxo-1,2,3,4-tetrahydro-5H-pyrrolo[3,2-d]pyrimidin-5-yl)acetamide], the inhibition at 1 µM was 88.8%, the inhibition at 10 µM turned out to be 97% and the pIC50 was less than 7.00.
Regarding `Cn1nc2c(c1CC(=O)Nc1nc(-c3ccc(C(F)(F)F)c(F)c3F)cs1)c(=O)n(C)c(=O)n2C` [Example 62, N-{4-[2,3-difluoro-4-(trifluoromethyl)phenyl]-1,3-thiazol-2-yl}-2-(2,5,7-trimethyl-4,6-dioxo-4,5,6,7-tetrahydro-2H-pyrazolo[3,4-d]pyrimidin-3-yl)acetamide], the inhibition at 1 µM amounted to 90.3%, the inhibition at 10 µM came out at 95.8% and the pIC50 is more than 7.30.
As to `Cc1cc2c(c(=O)n(C)c(=O)n2C)n1CC(=O)Nc1nc(-c2ccc(C(F)(F)F)c(F)c2)cs1` [Example 22, N-[4-(3-Fluoro-4-trifluoromethylphenyl)-1,3-thiazol-2-yl]-2-(1,3,6-trimethyl-2,4-dioxo-1,2,3,4-tetrahydro-5H-pyrrolo[3,2-d]pyrimidin-5-yl)acetamide], the inhibition at 1 µM worked out at 81.4%, the inhibition at 10 µM is 99.4% and the pIC50 is more than 7.30.
The like results for `Cc1cc2c(c(=O)n(C)c(=O)n2C)n1CC(=O)Nc1nc(-c2cc(F)c(OCC(C)(C)C)c(Cl)c2)cs1` [Example 28] were, in that order, 99.5%, 99.7% and more than 7.30.
The like results for `Cn1c(=O)c2c(cnn2CC(=O)Nc2nc(-c3cc(F)c(OCC4CCC4)c(F)c3)cs2)n(C)c1=O` [Example 81, N-{4-[4-(Cyclobutylmethoxy)-3,5-difluorophenyl]-1,3-thiazol-2-yl}-2-(4,6-dimethyl-5,7-dioxo-4,5,6,7-tetrahydro-1H-pyrazolo[4,3-d]pyrimidin-1-yl)acetamide] were, in that order, 94%, 100% and more than 7.30.

A word on the inhibition: it is the share of the control response that was lost under treatment. Broadly, the pIC50 is the IC50 on a negative log10 scale, so that one unit is a factor of ten.
